Earlier results in patent US20150025027A1 (PHARTRIALS PERQUISAS FARMACÊUTICAS LTDA, priority 2012, published 2015).
In brackets after ≈: the same amount, converted by molar mass.

Experiments:
[1] = not given; remark: listed apart in the source
[2] = not given; remark: listed apart in the source
[3] = not given; remark: listed apart in the source
[4] = high-risk, obese population; vs. 10% in comparison group

Structure (SMILES)	solubility in water [mg/mL]	half-life ([1]; in vivo) [h]	log P [2]	weight loss in humans [3]	time to peak plasma concentration ([1]; after oral administration) [h]	time to plasma concentrations in the state of equilibrium ([1]; days of treatment) [days]	share of the dose administered per metabolite ([1]; each of six metabolites) [%]	dose metabolized ([1]; forming six metabolites) [%]	dose administered eliminated through the urine ([1]; in vivo) [%]	oral bioavailability ([1]; oral) [%]	cardiovascular outcomes (AMI, CVA, cardiorespiratory failure or death) in patients receiving the drug [4] [%]
CC(NC(C)(C)C)C(=O)c1cccc(Cl)c1 (stereo not shown) [Bupropion, 1-(3-chlorophenyl)-2-{(1,1-dimethyl)-amino]-1-propanone]	312 (≈ 1300 mM)	24	3.6	–	–	–	–	–	–	–	–
CC1(C)OC2CO[C@@]3(COS(N)(=O)=O)OC(C)(C)O[C@H]3C2O1 (stereo partly shown) [Topiramate]	9.8 (≈ 28.9 mM)	–	−0.7	effective in weight loss	2	4	≤ 5	30	70	80	–
CC(C)CC(N(C)C)C1(c2ccc(Cl)cc2)CCC1 (stereo not shown) [sibutramine]	–	–	–	–	–	–	–	–	–	–	11.4
